The values below are quoted from earlier work in patent US20090318377A1, “MEDICAGENIC ACID SAPONIN AND USES THEREOF” (MEDICAGO INC., priority 2006, published 2009).

This data set deals with Syrian Golden hamster. As to conditions: average daily dose 128 mg/kg for 4 weeks.

As for soyasaponin B, the “reduction in high-density lipoprotein (HDL)” value is recorded as 33%, the “reduction in plasma cholesterol” value is on record as 20% and the reduction in triglycerides is listed as 18%.
